Results from article PMC3733398 (ACS medicinal chemistry letters, 2013).

System: sensitive, MDR and XDR clinical Mtb strains
Format: cell-based, Mycobacterium tuberculosis
Conditions: panel of MDR and XDR drug resistant clinical Mtb strains

Question: With `Cc1ccn2c(C(=O)NCc3ccc(Oc4ccc(F)cc4)cc3)c(C)nc2c1` [Compound 18] as the compound, how does the “potency surpassing that of PA-824” value read?
Answer: ~10 fold
